Experimental findings from patent US7094909B2, “HIV protease inhibitors, compositions containing the same, their pharmaceutical uses and materials for their synthesis” (priority 2001, dated 2006) are described below.

Assay [1] addresses T1, HIV-1 protease (Q7S mutant form) (Human immunodeficiency virus type 1 group M subtype B, UniProt P04585, Q495S).
T1 construct: made in house
Nature of the assay: HIV-1 Protease RET assay. In kind it is biochemical. The method, boiled down:
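Ki values fitted with the Morrison tight-binding equation from steady-state RET cleavage (ex 340, em 490 nm) of 5 μM RE(EDANS)SQNYPIVQK(DABCYL)R. Buffer pH 4.8 acetate, 1M NaCl, 5 mM DTT, 1 mg/ml BSA, 10% DMSO; 2 nM Q7S mutant dimer, 37 °C, 12 min.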

The subject of assay [2] is HIV-1 (HIV-1 RF, HIV-1 NL4-3) in CEM-SS / MT-2 cells. Nature of the assay: Cytopathic effect (CPE) inhibition assay (XTT/MTT dye reduction). In kind it is cell-based. In short, it runs like this:
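Readout is XTT reduction (A450, 4 h) after six days of culturing virus-infected (moi 0.025–0.819) or mock-infected CEM-SS/MT-2 cells, 2×10^4 per well, with half-log compound series. Antiviral EC50 and cytotoxic CC50 are relative to uninfected compound-free cells. Therapeutic index is CC50 divided by EC50.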

The mark [3] stands for this setting: Human immunodeficiency virus 1, NL43, unit inferred, read-out: EC50.
Where [4] appears, read: Ave. Ki (nM), RET assay, Q7S enzyme, Morrison tight binding fit.
The mark [5] stands for this setting: Human immunodeficiency virus 1, NL43, read-out: Ave CPE EC50.

By Ki is commonly meant a dissociation constant, usually derived from enzyme kinetics or from competition with a known ligand. A high value points to lower affinity. Broadly, the EC50 is the concentration at which the effect is half-maximal.

Where two headings read alike, the source gives them in different places.

Regarding `Cc1ccccc1CNC(=O)C1N(C(=O)[C@@H](O)[C@H](Cc2ccccc2)NC(=O)CSc2nccs2)CSC1(C)C` (some centres unmarked), affinity in assay [1] (Ki, unit inferred) was put at a Ki of 6.9 nM. Also, the concentration for a half-maximal effect (EC50) in assay [2] (setting [3]) came to 1550 nM.
Turning to `C#CCOC(=O)N[C@@H](Cc1ccccc1)[C@H](O)C(=O)N1CSC(C)(C)[C@H]1C(=O)NCc1ccccc1C(F)(F)F` [Example B54, {1-Benzyl-3-[5,5-dimethyl-4-(2-trifluoromethyl-benzylcarbamoyl)-thiazolidin-3-yl]-2-hydroxy-3-oxo-propyl}-carbamic acid prop-2-ynyl ester], affinity in assay [1] (setting [4]) was put at a Ki of 2.3 nM. Further, the EC50 in assay [2] (setting [5]) was found to be 1660 nM.
On to `Cc1ccccc1CNC(=O)[C@H]1N(C(=O)[C@@H](O)[C@H](Cc2ccccc2)NC(=O)c2cccc3c2CCCN3)CSC1(C)C` [Example B2, 1,2,3,4-Tetrahydro-quinoline-5-carboxylic acid {(1S,2S)-1-benzyl-3-[(R)-5,5-dimethyl-4-(2-methyl-benzylcarbamoyl)-thiazolidin-3-yl]-2-hydroxy-3-oxo-propyl}-amide], for which the Ki in assay [1] (setting [4]) turned out to be 0.35 nM. The EC50 in assay [2] (setting [5]) worked out at 87 nM.
The like results for `Cc1ccccc1CNC(=O)[C@H]1N(C(=O)[C@@H](O)[C@H](Cc2ccccc2)NC(=O)NCc2ccccc2)CSC1(C)C` [Example B59, 3-[(2S,3S)-3-(3-Benzyl-ureido)-2-hydroxy-4-phenyl-butyryl]-5,5-dimethyl-thiazolidine-4-carboxylic acid 2-methyl-benzylamide] were, in that order, 2.1 nM and 1820 nM.
The molecule `Cc1ccccc1CNC(=O)[C@H]1N(C(=O)[C@@H](O)[C@H](Cc2ccccc2)NC(=O)CBr)CSC1(C)C` had an inhibitory constant (Ki) in assay [1] (Ki, unit inferred) of 0.78 nM. Further, the EC50 in assay [2] (setting [3]) is at least 1000 nM.
The corresponding values for `C=CC(C)COC(=O)NC(Cc1ccccc1)[C@H](O)C(=O)N1CSC(C)(C)C1C(=O)NCc1ccccc1C` (some centres unmarked) are 15.1 nM and at least 3200 nM.
Turning to `Cc1ccccc1CNC(=O)[C@@H]1CC(F)(F)CN1C(=O)[C@@H](O)[C@H](Cc1ccccc1)NC(=O)c1ccc(C)c(O)c1C` [Example C42, (S)-4,4-Difluoro-1-((2S,3S)-2-hydroxy-3-{[1-(3-hydroxy-2,4-dimethyl-phenyl)-methanoyl]-amino}-4-phenyl-butanoyl)-pyrrolidine-2-carboxylic acid 2-methyl-benzylamide], in assay [1] (setting [4]), the Ki is 4 nM. Besides, in assay [2] (setting [5]), the concentration for a half-maximal effect (EC50) amounted to 3200 nM.
Turning to `Cc1ccc(C(=O)N[C@@H](Cc2ccccc2)[C@H](O)C(=O)N2CSC(C)(C)[C@H]2C(=O)NCc2ccco2)c(C)c1O`, in assay [1] (Ki, unit inferred), the Ki is 2 nM. Besides, the 50% effective concentration (EC50) in assay [2] (setting [3]) amounted to 488 nM.
In turn, `Cc1ccccc1CNC(=O)[C@H]1N(C(=O)[C@@H](O)[C@H](Cc2ccccc2)NC(=O)COc2ccccc2C)CSC1(C)C` gave a Ki in assay [1] (Ki, unit inferred) of 0.89 nM. For the same molecule, the EC50 in assay [2] (setting [3]) was determined as 1560 nM.
In assay [1] (setting [4]), `C#CCOC(=O)N[C@@H](Cc1ccccc1)[C@H](O)C(=O)N1CSC(C)(C)[C@H]1C(=O)NCc1ccncc1` [Example B67, ((1S,2S)-1-Benzyl-3-{5,5-dimethyl-4-[(pyridin-4-ylmethyl)-carbamoyl]-thiazolidin-3-yl}-2-hydroxy-3-oxo-propyl)-carbamic acid prop-2-ynyl ester] showed a Ki of 11.4 nM. Moreover, the EC50 in assay [2] (setting [5]) was above 3200 nM.
Molecule `CCN1CCc2c(C(=O)N[C@@H](Cc3ccccc3)[C@H](O)C(=O)N3CSC(C)(C)[C@H]3C(=O)NCc3ccccc3C)cccc21` gave an inhibitory constant (Ki) in assay [1] (Ki, unit inferred) of 6.7 nM. In addition, the concentration giving a half-maximal response (EC50) in assay [2] (setting [3]) amounted to 1010 nM.
`Cc1cc(O)c(C)c(C(=O)N[C@@H](Cc2ccccc2)[C@H](O)C(=O)N2CC(F)(F)C(C)(C)[C@H]2C(=O)NCC(C)C)c1` [Example D5, (S)-4,4-Difluoro-1-[(2S,3S)-2-hydroxy-3-(3-hydroxy-2,5-dimethyl-benzoylamino)-4-phenyl-butyryl]-3,3-dimethyl-pyrrolidine-2-carboxylic acid isobutyl-amide]: the inhibitory constant (Ki) in assay [1] (setting [4]) was below 0.1 nM. For the same molecule, the EC50 in assay [2] (setting [5]) turned out to be 11 nM.
`CC1(C)SCN(C(=O)[C@@H](O)[C@H](Cc2ccccc2)NC(=O)CSc2nc[nH]n2)[C@@H]1C(=O)N[C@@H]1C=CCCC1` had a Ki in assay [1] (Ki, unit inferred) of 6.1 nM. For the same molecule, in assay [2] (setting [3]), the half-maximal effective concentration (EC50) was 1280 nM.
